According to patent US8828966B2, “Method for treatment of macular degeneration by modulating P2Y12 or P2X7 receptors” (priority 2006, dated 2014):

Columns and labels:
ARPE-19 cells [1] = experiment: Lysosomal pH (pHL) with LysoSensor Yellow/Blue, high through-put screen; assay type: cell-based, human; details: for effect on pHL of cells treated with tamoxifen: tamoxifen concentration not stated, A68930 and A77636 at 1 μM; for effect on pHL of cells treated with chloroquine: chloroquine (20 μM with CGS21680 100 nM); for effect on pHL, agent alone: cells without other alkalinizing agent, NH4Cl 10 mM, BAF 200 nM, CHQ 20 μM, CFTR-172 10 μM, LDL 10 μg/ml, others not given; for effect on pHL of cells treated with 30 μM tamoxifen: CFTRAct16 at 10 μM
Protocol: Lysosensor Yellow/Blue co-localized with the Lysotracker Red dye in small vesicles, with a distribution consistent with lysosomal origin. Measurements of pHL were performed using a high throughput screening (HTS) protocol to maximize output and minimize variation using ARPE-19 cells in 96 well plates. […] Loading for 5 min. at 23° C. with 5 μM lysosensor, followed by 15 min. for internalization, produced stable and reproducible results.
The ratio was converted to pH by calibrating with KCl buffered to pH 4.0-6.0 in the presence of monensin and nigericin. Calibration indicated a baseline pH of 4.4 to 4.5, supporting lysosomal localization. […] NH4Cl decreased the ratios slightly at 380 nm. Nevertheless, absent the addition of the dye, none of these compounds, or any others, altered the fluorescent signal at 340 or 380 nm, showing a specificity of the measured change to pHL. […] This quantification is necessary to predict the potential effectiveness of acidifying drugs to restore lysosomal enzyme activity.
Extensive trials determined that the optimal response is obtained with 5 minute dye loading and 15 minute post-incubation. […] All reagents were from Sigma Chemical Corp. unless otherwise indicated.
In general, each condition below used 3-12 independent wells per plate, in 3-6 separate plates. As levels from individual plates varied, data was normalized to the mean pHL for control wells from each plate. Fluorescent ratios were converted to pH following calibration performed on each plate as described. Incubation with Lysosensor Yellow/Blue was kept constant and all measurements were performed 15 min after removal of dye from the bath to ensure continuity. Significance was determined with a one-way ANOVA and Tukey post test. Drugs were always tested on control cells to ensure modification of healthy RPE cells was minimal, and cells were not exposed to dye to make sure effects were specific. All background was subtracted from the fluorescence excited at 340 and 380 nm independently before calculation of the ratio.

[2] = test system: primary cultures of bovine RPE cells; experiment: Lysosomal pH in primary bovine RPE cultures; assay type: cell-based
Protocol: Isolation of Bovine and Mouse RPE Cells: The bovine RPE-choroid and sclera were removed, incubated in 2.5% trypsin at 37° C. in 5% CO2 for 30 min, after which RPE sheets are dissected, washed and plated in 96-well plates with 10% serum medium. Mouse eyes were incubated in DMEM for 3 hrs at room temperature (RT), then in 0.1% trypsin and 0.4 mg/ml collagenase IV with 1 mM EDTA for 45 min at RT. RPE sheets were dissected out, washed, and incubated with 0.25% trypsin/0.02% EDTA in order to obtain a suspension of single cells, then grown as above.
HTS Measurement of pHL: ARPE-19 cells were grown in 96-well plates, rinsed 3× with isotonic solution (IS; prepared from NaCl 105 mM, KCl 5 mM, HEPES Acid 6 mM, Na HEPES 4 mM, NaHCO3 5 mM, mannitol 60 mM, glucose 5 mM, MgCl2 0.5 mM, CaCl2 1.3 mM) and incubated with 5 μM LysoSensor Yellow/Blue (Invitrogen Corp.) diluted with IS. Extensive trials determined that the optimal response is obtained with 5 minute dye loading and 15 minute post-incubation. Fluorescence was measured with a Fluoroskan 96-well Plate Reader (Thermo Electron Corp.). pHL was determined from the ratio of light excited at 340 nm vs 380 nm ([…] em). pHL was calibrated by exposing cells to 10 μM H^+/Na^+ ionophore monensin and 20 μM H^+/K^+ ionophore nigericin in 20 MES, 110 KCl and 20 NaCl at pH 3.0-7.0 for 15 min. All reagents were from Sigma Chemical Corp. unless otherwise indicated.

ARPE-19 cells [3] = experiment: Clearance (degradation) of calcein-labeled photoreceptor outer segments; assay type: cell-based, human
Protocol: Outer Segment Degradation: Bovine retinas were homogenized in 20% sucrose with 130 mM NaCl, 20 mM Tris-HCl, 10 mM glucose, 5 mM taurine and 2 mM MgC12 (pH 7.20). The homogenate was placed in ultracentrifuge tubes with 20%, 27%, 33%, 41%, 50% and 60% sucrose, respectively, and centrifuged for 70 minutes at 28,000 rpm on a SW28 rotor (4° C.). The supernatant was filtered, diluted in 0.02M Tris-HCl buffer (pH 7.2) and centrifuged at 13,000×g for 10 minutes (4° C.). The pellet was resuspended in […], 0.1 mM NaCl and 2.5% sucrose. Outer segments were loaded with 5 μM calcein-AM in PBS for 10 minutes, and spun 2× at 14,000 rpm to wash. Outer segments were then diluted 1:100 in growth medium and added to ARPE-19 cells in 96-well plates.
Isolated bovine outer segments loaded with calcein were supplied to ARPE-19 cells in 96-well plates for 2 hrs, washed 3× and maintained in control medium for an additional 3 hr (see Methods). […] Promising compounds were examined for their effects on cells treated with A2E, although the restoration of pHL is unlikely to remove A2E itself. However, other components of the outer segments are amendable to digestion by lysosomal enzymes at the appropriate pHL, and acidification could minimize the secondary effect of this accumulation.

ARPE-19 cells [4] = experiment: FACS analysis of autofluorescence (excited at 488 nm); assay type: cell-based, human; details: for effect on autofluorescence enhanced by POS+CHQ: photoreceptor outer segments plus 10 μM chloroquine, 7 days
Excerpt: To maintain a balance between the synthesis, degradation, and subsequent recycling of cellular products there are a variety of autophagic responses, but all involve degradation of intracellular components via the lysosome. Typically, autophagy involves the formation of a membrane around a targeted region of the cell, separating the contents from the rest of the cytoplasm, and then the resultant vesicle fuses with a lysosome and the contents are subsequently degraded.

ABCA4−/− mice = experiment: Oral P2Y12 inhibitor in ABCA4-/- mice, lysosomal pH of RPE cells; assay type: in vivo, mouse; details: 9-11 month old mice, 50 mg/kg orally, single dose, cells removed 4 hrs later
Protocol: In this example the selected P2Y12 inhibitor was clopidogrel (commercially available as Plavix), but the invention need not be so limited, and other P2Y12 inhibitors, such as AR-C66096, may be used. The clopidogrel was given orally at 50 mg/kg and the pH measured from RPE cells that were removed 4 hrs later.

CNC[C@H](O)c1ccc(O)c(O)c1 [epinephrine]
effect on pHL of cells treated with tamoxifen (ARPE-19 cells [1]): significantly decrease pHL

NC[C@H](O)c1ccc(O)c(O)c1 [norepinephrine]
effect on pHL of cells treated with chloroquine (ARPE-19 cells [1]): reduced pHL | effect on pHL of cells treated with tamoxifen (ARPE-19 cells [1]): significantly decrease pHL

CSc1nc(N)c2ncn([C@@H]3O[C@H](COP(=O)(O)OP(=O)(O)O)[C@@H](O)[C@H]3O)c2n1 [MeSADP]
effect on pHL, agent alone (ARPE-19 cells [1]): elevated the lysosomal pHL

O=C(O)c1ccc(/C=C2\SC(=S)N(c3cccc(C(F)(F)F)c3)C2=O)cc1 [CFTR-172]
effect on pHL, agent alone (ARPE-19 cells [1]): increased lysosomal pH

CC(C)(C)NC[C@H](O)COc1nsnc1N1CCOCC1 [timolol]
effect on pHL of cells treated with 30 μM tamoxifen (ARPE-19 cells [1]): did not lower pHL | effect on the reduction of pHL triggered by norepinephrine (ARPE-19 cells [1]; cells treated with tamoxifen plus norepinephrine): blocked

CC(C)NCC(O)c1ccc(O)c(O)c1 (stereo not shown) [isoproterenol]
effect on pHL of cells treated with tamoxifen (ARPE-19 cells [1]): significantly decrease pHL

CO/C1=C\C(C)=C\[C@@H](C)[C@@H](O)[C@@H](C)C/C(C)=C/C=C/[C@H](OC)[C@@H]([C@@H](C)[C@@H](O)[C@H](C)[C@@]2(O)C[C@@H](O)[C@H](C)[C@@H](C(C)C)O2)OC1=O [bafilomycin-A]
effect on pHL, agent alone (ARPE-19 cells [1]): pH was elevated

CC/C(=C(\c1ccccc1)c1ccc(OCCN(C)C)cc1)c1ccccc1 [tamoxifen]
time for elevated lysosomal pH to reach a plateau (ARPE-19 cells [1]): 10-15 minutes | effect on pHL, agent alone (ARPE-19 cells [1]): raised pHL | effect on pHL, agent alone [2]: increased pHL | clearance of calcein-labeled outer segments, alkalinizing agent alone (ARPE-19 cells [3]; after 24 hrs): slowed clearance of outer segments

CNC[C@H](O)c1cccc(O)c1 [phenylephrine]
effect on pHL of cells treated with tamoxifen (ARPE-19 cells [1]): no significant effect on pHL

C[C@]12CC[C@@H]3c4ccc(O)cc4CC[C@H]3[C@@H]1CC[C@@H]2O [17-β estradiol]
effect on pHL of cells treated with tamoxifen (ARPE-19 cells [1]): neither mimicked, nor inhibited

Nc1ncnc2c1nc(Sc1ccc(Cl)cc1)n2[C@@H]1O[C@@H]2COP(=O)([O-])O[C@H]2[C@H]1O.[Na+] [cpt-cAMP, 8-(4-chlorophenylthio) adenosine-3′,5′-cyclic monophosphate]
effect on pHL of cells treated with 10 μM tamoxifen (ARPE-19 cells [1]): significantly decreased pHL | effect on pHL of cells treated with 30 μM tamoxifen (ARPE-19 cells [1]): significantly decreased pHL

O=C(O)c1cc([N+](=O)[O-])ccc1NCCCc1ccccc1 [NPPB, 5-nitro-2-(3-phenylpropylamino)-benzoate]
effect on pHL of cells treated with tamoxifen (ARPE-19 cells [1]): reversed

CCCSc1nc(N)c2ncn([C@@H]3O[C@H](COP(=O)([O-])OP(=O)([O-])C(F)(F)P(=O)([O-])[O-])[C@@H](O)[C@H]3O)c2n1.[Na+].[Na+].[Na+].[Na+] [AR-C66096, 2-(Propylthio) adenosine-5′-O-(β,γ-difluoromethylene) triphosphate tetrasodium salt]
effect on pHL elevation by P2Y12 agonist MeSADP (ARPE-19 cells [1]; cells stimulated with MeSADP): inhibited these actions and restored lysosomal acidity | effect on autofluorescence enhanced by POS+CHQ (ARPE-19 cells [4]): reduced this enhanced auto-fluorescence to near control levels

OC[C@H]1O[C@@H](n2cnc3c(NC4CCCC4)ncnc32)[C@H](O)[C@@H]1O [CPA, N^6-cyclopentyl-adenosine]
effect on pHL of cells treated with tamoxifen (ARPE-19 cells [1]): had no effect

COC(=O)[C@H](c1ccccc1Cl)N1CCc2sccc2C1 [clopidogrel]
lysosomal pHL in RPE cells after single oral dose (ABCA4−/− mice): reduced

CCNC(=O)[C@H]1O[C@@H](n2cnc3c(N)ncnc32)[C@H](O)[C@@H]1O [NECA, 5′-(N-ethylcarboxamido) adenosine]
effect on pHL of cells treated with tamoxifen (ARPE-19 cells [1]): reversed lysosomal alkalinization by tamoxifen | effect on pHL of bovine cells treated with tamoxifen [2]: not quite significant

CCOc1ccc(Nc2ccc(/C(=C3C=C/C(=[N+](/CC)Cc4cccc(S(=O)(=O)[O-])c4)C=C/3C)c3ccc(N(CC)Cc4cccc(S(=O)(=O)[O-])c4)cc3C)cc2)cc1.[Na+] [BBG]
effect on pHL rise by P2X7 agonist BzATP (ARPE-19 cells [1]; cells stimulated with BzATP): prevented this rise | effect on autofluorescence enhanced by POS+CHQ (ARPE-19 cells [4]): reduced this enhanced autofluorescence

COc1ccc(Cl)cc1C(=O)NCCc1ccc(S(=O)(=O)NC(=O)NC2CCCCC2)cc1 [glybenclamide]
effect on pHL, agent alone (ARPE-19 cells [1]): smaller effects | effect on pHL of cells treated with tamoxifen (ARPE-19 cells [1]): increased pHL

CCNC(=O)[C@H]1O[C@@H](n2cnc3c(N)nc(NCCc4ccc(CCC(=O)O)cc4)nc32)[C@H](O)[C@@H]1O [CGS21680]
effect on pHL of cells treated with 10 μM tamoxifen (ARPE-19 cells [1]): Over half of the increase triggered by 10 μM tamoxifen was reversed | effect on pHL of cells treated with chloroquine (ARPE-19 cells [1]): decreased the lysosomal alkalinization | effect on pHL of cells treated with tamoxifen (ARPE-19 cells [1]): acidified the lysosomes | degradative capacity (outer segment clearance) in chloroquine-treated cells (ARPE-19 cells [3]; 100 nM CGS with 20 μM CHQ, 24 hrs): restored the degradative capacity

OC[C@H]1O[C@@H](n2cnc3c(NC4CC5CCC4C5)ncnc32)[C@H](O)[C@@H]1O (stereo partly drawn) [ENBA, (2S)-N^6-[2-endo-norbornyl]adenosine]
effect on pHL of cells treated with tamoxifen (ARPE-19 cells [1]): had no effect

Nc1ncnc2c1ncn2[C@@H]1O[C@H](CO)[C@@H](O)[C@H]1O [adenosine]
effect on pHL of cells treated with tamoxifen (ARPE-19 cells [1]): reduce the pHL | effect on pHL of bovine cells treated with tamoxifen [2]: acidified the lysosomes

CN[C@@H]1C[C@H]2O[C@@](C)([C@@H]1OC)n1c3ccccc3c3c4c(c5c6ccccc6n2c5c31)C(=O)NC4 [staurosporine]
effect on pHL of cells treated with tamoxifen (ARPE-19 cells [1]): decrease in lysosomal pH

CC(C)OC(=O)CCC/C=C\C[C@@H]1[C@@H](CC[C@@H](O)CCc2ccccc2)[C@H](O)C[C@@H]1O [latanaprost]
effect on pHL of cells treated with 30 μM tamoxifen (ARPE-19 cells [1]): did not lower pHL

O=c1c(-c2ccc(O)cc2)coc2cc(O)cc(O)c12 [genistein]
effect on pHL, agent alone (ARPE-19 cells [1]): smaller effects | effect on pHL of cells treated with tamoxifen (ARPE-19 cells [1]): acidified lysosomes

CCN(CC)CCCC(C)Nc1ccnc2cc(Cl)ccc12 (stereo not shown) [chloroquine]
effect on pHL, agent alone (ARPE-19 cells [1]): pH was elevated | autofluorescence, agent alone (ARPE-19 cells [4]; 10 μM for 7 days): increased autofluorescence

CCN[C@H]1C[C@H](C)S(=O)(=O)c2sc(S(N)(=O)=O)cc21 [dorzolamide]
effect on pHL of cells treated with 30 μM tamoxifen (ARPE-19 cells [1]): did not lower pHL

Nc1ncnc2c1nc(Br)n2[C@@H]1O[C@@H]2COP(=O)(O)O[C@H]2[C@H]1O [8-Br-cAMP, 8-bromo-adenosine 3′,5′-cyclic monophosphate]
effect on pHL of cells treated with 10 μM tamoxifen (ARPE-19 cells [1]): not significant
